How the values were obtained:
melanoma B-16 = assay: Antitumor activity on grafted melanoma B-16 in mice (inhibition of tumor volume gain); assay type: in vivo, mouse; conditions: for Inhibition of tumor volume gain: B-16, CBAF1 mice, days 1-10
Source text: (§1) For the determination of antitumor activity these compounds (I, II, III, IV), 5-fluorouracyl and Ftorafur were used in the same solvents as in the determination of toxicity.
(§2) The determination of antitumor activity was effected on grafted tumors of mice: leukemia L-1210, leukemia P-388, Leukemia La, melanoma B-16, adenocarcinoma 755 (Ca-755), as well as on grafted tumors of rats: Schwetz erythroleukosis, Walker carcinosarcoma (WCS), Geren carcinoma.
(§3) In the determination of the antitumor activity the test compounds were introduced in equitoxic doses. Ftorafur was also used in the optimal dose which is equal to […].
(§4) As the criterion of antitumor activity on solid tumors used is the inhibition (I) of the tumor volume gain in comparison with the control, expressed in percent and calculated by the formula: [formula] wherein Vc --average volume of the tumor in the control,
(§5) Vt --average volume of the tumor in the experiment.

[1] = Toxicity (LD50), intraperitoneal administration, mongrel white mice, Burns method; assay type: in vivo, mouse; conditions: mice; for less toxic than 5-fluorouracyl, fold: relative to 5-fluorouracyl; for LD50: mouse, in vivo, ip, intraperitoneal, I, II, III as emulsion in 10% aqueous Tween-80, IV, Ftorafur, 5-fluorouracyl as aqueous solutions
Source text: Toxicity of the compounds according to the present invention has been determined on mongrel white mice in experimental intraperitoneal administration of these compounds and evaluated by the Burns method (using curves of accumulation of the animal death frequencies vs. dose).
As the toxicity characteristic use was made of the dose causing death of 50% of the animals employed for the experiment (LD50).
For the determination of toxicity of (1,3-bis-(2,2,5,5-tetramethyl-1-oxyl-Δ^3 -pyrrolin-3-oyl)-5-fluorouracyl(compound I), 1-(2,2,5,5-tetramethyl-1-oxyl-Δ^3 -pyrrolin-3-oyl)-5-fluorouracyl (compound II) and 3-(2,2,5,5-tetramethyl-1-oxyl-Δ^3 -pyrrolin-3-oyl)-5-fluorouracyl (compound III), these compounds were administered intraperitoneally in the form of an emulsion in a 10% aqueous solution of polyoxyethylsorbitan monooleate (Tween-80, Ferak Berlin West Germany).
For the determination of toxicity of sodium salt of 3-(2,2,5,5-tetramethyl-1-oxyl-Δ^3 -pyrrolin-3-oyl)-5-fluorouracyl (compound IV), Ftorafur and 5-fluorouracyl, these compounds were also administered intraperitoneally in the form of aqueous solutions.

Solubility = assay type: physicochemical; conditions: for solubility in organic solvents: alcohols, acetone, acetonitrile, dimethylformamide, dimethylsulphoxide; for solubility in aqueous alkalis or buffer solutions: pH above 10
leukemia La = assay: Antitumor activity on grafted leukemia La in mice (ELS, kinetic criterion, chemotherapeutic index); assay type: in vivo, mouse; conditions: for Chemotherapeutic index I40 = LD10/ED40 / kinetic criterion (.chi.) = 1-.phi.t/.phi.c / ELS (extension of average life span): La, C57Bl mice; for Chemotherapeutic index I40 = LD10/ED40: i/p
Source text: as §1, §2
Leukemia La was grafted intraperitoneally using a suspension of leukemic cells in a physiological solution. The inoculum contained 10^8 of leukemia cells. […]
In the determination of the antitumor activity the test compounds were introduced in equitoxic doses.
The criterion of the antitumor activity for leukemia P-338, L-1210 and La is the extension of an average life span (ELS) of the test animals as compared to the control ones, expressed in percent and calculated by the formula: [formula] wherein Lt --life span of animals in the test group;
Lc --life span of animals in the control group, i.e. without administration of the test compounds.
The comparative assessment of the scope of therapeutic action is effected using chemotherapeutic indices I40, I60 and I100 : I40 =LD10 /ED40, I60 =LD10 /ED60 I100 =LD10 /ED100, where LD10 =dose causing death of 10% of the animals; ED40, ED60 and ED100 are effective doses causing extension of the animal's life span by 40, 60 and 100 percent respectively.

[2] = Stability against hydrolysis; assay type: physicochemical
Schwetz erythroleukosis = assay: Antitumor activity on grafted Schwetz erythroleukosis in rats; assay type: in vivo, rat; conditions: mongrel rats, single dose 25 mg/kg i/p, days 7-14
Source text: as §1, §2, §3, §4, §5

[3] = background art; cited from earlier work
[4] = single dose 75 mg/kg i/p, days 1-7 after grafting
[5] = single dose 75 mg/kg i/p, days 1-7 after grafting, control life span 6,5 days
[6] = leukemia La, relative to Ftorafur

## CC1(C)C=C(C(=O)n2cc(F)c(=O)n(C(=O)C3=CC(C)(C)N([O])C3(C)C)c2=O)C(C)(C)N1[O] [I, 1,3-bis-(2,2,5,5-tetramethyl-1-oxyl-Δ^3-pyrrolin-3-oyl)-5-fluorouracyl]
Melanoma B-16; single dose 75 mg/kg i/p
  Inhibition of tumor volume gain: 15%
[1]; i/p
  less toxic than 5-fluorouracyl, fold: 3.5 times
[1]
  LD50: 350 mg/kg
Solubility
  solubility in organic solvents: wellsoluble
  solubility in water: sparingly soluble in water
Leukemia La; days 1-7
  Chemotherapeutic index I40 = LD10/ED40: 4,0
Leukemia La; [4]
  kinetic criterion (.chi.) = 1-.phi.t/.phi.c: 0,1
Leukemia La; [5]
  ELS (extension of average life span): 30%
Leukemia La; leukemia La
  kinetic criterion compared with Ftorafur, in words: close values
  therapeutic effect compared with 5-fluorouracyl, in words: close to 5-fluorouracyl
Leukemia La; [6]
  effectiveness relative to Ftorafur as regards ELS, fold: 2 times

## CC1(C)C=C(C(=O)n2cc(F)c(=O)[nH]c2=O)C(C)(C)N1[O] [II, 1-(2,2,5,5-tetramethyl-1-oxyl-Δ^3 pyrrolin-3-oyl)-5-fluorouracyl]
[1]; i/p
  toxicity compared with 5-fluorouracyl, in words: substantially similar to that of 5-fluorouracyl
[1]
  LD50: 150 mg/kg
Solubility
  solubility in organic solvents: wellsoluble
  solubility in aqueous alkalis or buffer solutions: well soluble
  solubility in water: sparingly soluble in water
Leukemia La; days 1-7
  Chemotherapeutic index I40 = LD10/ED40: 2,0
Leukemia La; [4]
  kinetic criterion (.chi.) = 1-.phi.t/.phi.c: 0.5
Leukemia La; [5]
  ELS (extension of average life span): 45%
Leukemia La; leukemia La
  therapeutic effect compared with 5-fluorouracyl, in words: similar, in these characteristics, to 5-fluorouracyl
Leukemia La; [6]
  effectiveness relative to Ftorafur as regards ELS, fold: 3 times
  effectiveness relative to Ftorafur as regards kinetic criterion, fold: 3 times
[2]; to fluorouracyl and 2,2,5,5-tetramethyl-1-oxyl-Δ^3 -pyrrolin-3-carboxylic acid, rate increases with increasing pH
  hydrolysis in aqueous solutions of alkalis: rapidly hydrolyzed

## O=c1[nH]cc(F)c(=O)[nH]1 [5-fluorouracyl, reference compound]
Melanoma B-16; single dose 25 mg/kg i/p
  Inhibition of tumor volume gain: 0%
Melanoma B-16; mouse, in vivo
  activity on melanoma B-16, in words: shows no activity
[1]
  LD50: 100 mg/kg
Schwetz erythroleukosis
  Inhibition of tumor volume gain: 15%
Leukemia La; single dose 25 mg/kg i/p, days 1-7, control life span 6.5 days
  ELS (extension of average life span): 57%
Leukemia La; single dose 35 mg/kg i/p, days 1,3,5,7
  kinetic criterion (.chi.) = 1-.phi.t/.phi.c: 0.67
Leukemia La; single dose 35 mg/kg i/p, days 1,3,5,7, control life span 6,5 days
  ELS (extension of average life span): 57%
Leukemia La; mouse, in vivo, ip
  Chemotherapeutic index I60 = LD10/ED60: 3.6
[3]
  toxicity / side effects in words: highly toxic, it strongly affects the function of bone marrow and gastro-intestinal tract

## CC1(C)C=C(C(=O)n2c(=O)[nH]cc(F)c2=O)C(C)(C)N1[O] [III, 3-(2,2,5,5-tetramethyl-1-oxyl-Δ^3-pyrrolin-3-oyl)-5-fluororacyl]
[1]; i/p
  toxicity compared with Ftorafur, in words: approach toxicity of Ftorafur
  less toxic than 5-fluorouracyl, fold: 5 times
[1]
  LD50: 550 mg/kg
Solubility
  solubility in organic solvents: wellsoluble
  solubility in aqueous alkalis or buffer solutions: well soluble
  solubility in water: sparingly soluble in water
Leukemia La; days 1-7
  Chemotherapeutic index I40 = LD10/ED40: 7,8
Leukemia La; single dose 65 mg/kg i/p, days 1-7
  kinetic criterion (.chi.) = 1-.phi.t/.phi.c: 0,2
Leukemia La; single dose 65 mg/kg i/p, days 1-7, control life span 6,5 days
  ELS (extension of average life span): 40%
Leukemia La; leukemia La
  kinetic criterion compared with Ftorafur, in words: close values
  therapeutic effect compared with 5-fluorouracyl, in words: close to 5-fluorouracyl
Leukemia La; [6]
  effectiveness relative to Ftorafur as regards ELS, fold: 2 times
[2]; room temperature, pH 3 to 11, about 5 hours
  stability against hydrolysis: do not undergo any noticeable hydrolytical decomposition
